# Patent publication US20100086519A1, “Treatment of Hepatitis C Infection With Metalloporphyrins” (The Charlotte-Mecklenburg Hospital Authority d/b/a …, priority 2008, published 2010)
# Where a SMILES comes first, the peptide text is derived from it. The star is where a group is joined. Cbz = O=C(OCc1ccccc1)*
# Assays:
# [1] = molecular target: T1, HCV NS5A protein (Hepatitis C virus genotype 1b, UniProt Q9WMX2); experiment: NS5A protein levels by Western blot in 9-13 cells; type: cell-based; parameters: processed into structural (C, E1, E2) and nonstructural (NS2, NS3, NS4A, NS4B, NS5A and NS5B) proteins; expressed in transfected cells; host or cells: 9-13 cells (human hepatoma cells with a replicating HCV NS3-NS5B region); details: 9-13 cells; for NS5A protein levels, proteasome inhibitor alone: absence of ZnMP, FIG. 5C; for effect on degradation of NS5A by ZnMP 5 μM: epoxomicin 5, 10 μM or MG132 10, 20 μM 30 min before ZnMP 5 μM; for effect on degradation of NS5A by ZnMP 5 μM / effect on degradation of NS5A by ZnMP 10 μM / NS5A protein levels: 4 hours; for effect on degradation of NS5A by ZnMP 10 μM: epoxomicin 5, 10 μM or MG132 10, 20 μM 30 min before ZnMP 10 μM; for NS5A protein levels: 10 μM, FIG. 2A
# From the text: Bartenschlager (University of Heidelberg, Heidelberg, Germany).
# Biochim Biophys Acta 2008; 1779:195-203.
# [2] = molecular target: T1, HCV NS5A protein; experiment: polyubiquitination of NS5A by immunoprecipitation and immunoblot in 9-13 cells; type: cell-based; parameters: processed into structural (C, E1, E2) and nonstructural (NS2, NS3, NS4A, NS4B, NS5A and NS5B) proteins; expressed in transfected cells; host or cells: 9-13 cells (human hepatoma cells with a replicating HCV NS3-NS5B region)
# Description: Immunoprecipitation was carried out according to the Manufacturer's protocol. Briefly, cells were harvested in cold radioimmunoprecipitation assay (RIPA) buffer (50 mM Tris-HC1 [pH 7.4], 150 mM NaCl, 1 mM EDTA, 0.25% sodium deoxycholate, 1% IGEPAL CA-630, 1 mM PMSF, 1 mM NaF, 1 mM Na3VO4 and 1 μg/ml each of aprotinin, leupeptin, and pepstatin). The samples were pre-cleared with Protein A/G Agarose for 10 min at 4° C. and subsequently incubated while gently rotating at 4° C. overnight with primary antibody, followed by Protein A/G beads for 1 h at 4° C. Beads were spun down and washed twice with RIPA buffer. Protein samples were separated by electrophoresis on 4-15% SDS-PAGE gels, and transferred to PVDF membrane, conjugated ubiquitin was detected as described for Western blot analysis using anti-ubiquitin antibody.
# This Example investigates whether ZnMP induces polyubquitination of NS5A to gain insight into the mechanism by which ZnMP mediates degradation of NS5A protein. 9-13 cells were treated without or with 10 μM ZnMP for 4 h. Total proteins were extracted for subsequent Western blot or immunoprecipitation analysis. Immunoprecipitation was carried out using anti-HCV NS5A antibody. Ubiquitin conjugation of NS5A [polyubiquitinated NS5A (Ub)n-NS5A]was examined with immunoprecipitation using an anti-HCV NS5A antibody and immunoblot using an anti-ubiquitin antibody. […] In FIG. 6B, ubiquitination of NS5A following ZnMP treatment, or vehicle (DMSO) only was compared. The positions of molecular mass markers (in kilodaltons) are indicated to the left of the gel. The bracket indicates polyubiquitinated NS5A. Asterisks indicate cross-reacting immunoglobulin heavy chain. […] These bands may represent polyubiquitinated NS5A.
# [3] = tested on: HCV; experiment: anti-viral activity (summary statement); type: cell-based, hepatitis C virus
# [4] = tested on: 9-13 cells; experiment: growth of cells exposed to proteasome inhibitor; type: cell-based, human; details: 20 μM
# [5] = tested on: HO-1 gene; details: NIH 3T3 cells; cited from earlier work
# [6] = molecular target: T2, Bach1 (Mus musculus, UniProt P97302); details: NIH 3T3 cells; cited from earlier work
# T2 construct: host or cells: NIH 3T3 cells
# T2 sequence (P97302 1-739): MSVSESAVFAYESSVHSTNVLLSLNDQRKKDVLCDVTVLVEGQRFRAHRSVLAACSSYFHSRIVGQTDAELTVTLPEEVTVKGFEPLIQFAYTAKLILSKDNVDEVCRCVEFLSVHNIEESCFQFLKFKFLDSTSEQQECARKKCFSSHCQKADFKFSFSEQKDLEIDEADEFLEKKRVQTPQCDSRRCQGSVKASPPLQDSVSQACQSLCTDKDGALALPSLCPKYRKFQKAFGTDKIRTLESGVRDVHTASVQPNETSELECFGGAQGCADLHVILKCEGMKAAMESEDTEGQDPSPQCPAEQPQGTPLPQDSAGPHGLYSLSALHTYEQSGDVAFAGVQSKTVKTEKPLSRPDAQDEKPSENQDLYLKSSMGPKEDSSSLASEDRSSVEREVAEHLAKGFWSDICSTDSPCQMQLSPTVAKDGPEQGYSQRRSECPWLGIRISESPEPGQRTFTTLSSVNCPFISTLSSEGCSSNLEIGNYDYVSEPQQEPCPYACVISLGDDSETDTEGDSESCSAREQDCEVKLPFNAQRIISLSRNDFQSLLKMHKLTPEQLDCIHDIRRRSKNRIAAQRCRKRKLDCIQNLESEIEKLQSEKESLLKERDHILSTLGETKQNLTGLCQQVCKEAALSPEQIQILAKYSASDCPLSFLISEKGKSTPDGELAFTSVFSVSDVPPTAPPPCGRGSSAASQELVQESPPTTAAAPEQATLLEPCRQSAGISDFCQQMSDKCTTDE
# T1 sequence (Q9WMX2 1973-2419): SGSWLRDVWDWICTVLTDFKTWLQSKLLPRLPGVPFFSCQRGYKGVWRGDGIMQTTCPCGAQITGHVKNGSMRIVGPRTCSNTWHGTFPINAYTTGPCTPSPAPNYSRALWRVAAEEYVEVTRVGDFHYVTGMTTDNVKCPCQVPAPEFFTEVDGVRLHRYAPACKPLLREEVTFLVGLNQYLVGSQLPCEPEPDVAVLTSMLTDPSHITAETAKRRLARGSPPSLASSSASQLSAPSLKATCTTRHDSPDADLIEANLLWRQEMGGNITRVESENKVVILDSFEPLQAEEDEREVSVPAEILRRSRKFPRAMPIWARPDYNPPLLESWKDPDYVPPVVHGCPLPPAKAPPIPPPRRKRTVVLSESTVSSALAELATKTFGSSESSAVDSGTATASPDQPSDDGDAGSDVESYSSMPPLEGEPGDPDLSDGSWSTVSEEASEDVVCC
compound,measurement,setting,value
CC(C)C[C@@H](C=O)NC(=O)[C@H](CC(C)C)NC(=O)[C@H](CC(C)C)NC(=O)OCc1ccccc1 [MG132] (Cbz-Leu-Leu-Leu-aldehyde),"NS5A protein levels, proteasome inhibitor alone",[1],did not affect
same,effect on degradation of NS5A by ZnMP 5 μM,[1],completely abrogated
same,effect on degradation of NS5A by ZnMP 10 μM,[1],significant reversal
"c1ccc(CN(CCN(Cc2ccccn2)Cc2ccccn2)Cc2ccccn2)nc1 [TEPN, N, N, N, N-tetrakis-(2-pyridylmethyl) ethylenediamine]",effect on ZnMP-mediated down-regulation of NS5A protein levels,"[1]; chelator 30 min before ZnMP, then 4 h, FIG. 3",did not affect
"[Cl-].[Cl-].[Zn+2] [ZnCl2, zinc chloride]",NS5A protein levels,[1],not affected
"C=CC1=C(C)c2cc3[n-]c(cc4nc(cc5[n-]c(cc1n2)c(C)c5C=C)C(C)=C4CCC(=O)O)c(CCC(=O)O)c3C.[Zn+2] [ZnPP, Zinc protoporphyrin]",polyubquitination of NS5A (summary statement),[2],induce polyubquitination
same,anti-viral activity (summary statement),[3],display anti-viral activity
CC[C@H](C)[C@H](NC(=O)[C@H]([C@@H](C)CC)N(C)C(C)=O)C(=O)N[C@H](C(=O)N[C@@H](CC(C)C)C(=O)[C@@]1(C)CO1)[C@@H](C)O [epoxomicin],toxicity to the cells (cell growth),[4],toxic
same,"NS5A protein levels, proteasome inhibitor alone",[1],did not affect
same,effect on degradation of NS5A by ZnMP 5 μM,[1],completely abrogated
same,effect on degradation of NS5A by ZnMP 10 μM,[1],significant reversal
Tin mesoporphyrin [SnMP],HO-1 gene expression,[5],induce
same,Bach1 protein levels,[6],down-regulate
same,"NS5A protein levels, time course","[1]; 10 μM, 0, 2, 4, 6 h, FIG. 2B",no detectable effects
mesoporphyrin,NS5A protein levels,[1],not affected
